In patent EP0632806B1 (priority 1992, dated 1993):
Where a name gives a salt, the structure may show the parent alone.

What was measured:
[1] = test system: pentobarbital anaesthetized rats subject to coronary artery occlusion; settings: rat, in vivo
[2] = test system: pentobarbital anaesthetized rats; settings: rat, in vivo

Question: Which results are given for `C=CCN1CC[C@]23c4c5ccc(O)c4O[C@H]2C(=O)CC[C@@]3(O)[C@H]1C5` [naloxone, naloxone hydrochloride]?
Answer: incidence of VF arrhythmias [1]: slightly decreased; BP [2]: 103±5; HR [2]: 379±6; PR [2]: 57±1; QRS [2]: 29±1; QT [2]: 41±1
